Data set [1] concerns Bacteria and fungi (Escherichia coli, Pseudomonas aeruginosa, Staphylococcus aureus, Candida albicans, Aspergillus niger). In words: PET, overall compliance with European and U.S. pharmacopoeia criteria. Type of data set: cell-based. The text has this: (§1) A particular problem that must be solved by the invention is that of effectively protecting a pharmaceutical topical composition while at the same time meeting the criteria required by the European and U.S. pharmacopoeias. This is because, since the purpose of the pharmaceutical composition is to become a pharmaceutical product with a marketing authorization, it is imperative for the composition according to the invention to meet these criteria. In order to verify this point and to determine the antimicrobial action of the various mixtures of excipients according to the invention, a test protocol, known as the PET (Preservative Efficacy Test), exists. The PET comprises artificially inoculating the compositions with a known number of microorganisms, and then determining the decrease in the latter in the compositions tested, at given times. The protocol of this test is set up in order to abide by the recommendations of the European and U.S. pharmacopoeias. The test and also the recommendations of the European and U.S. pharmacopoeias are described in Example 1 to follow. The mixture of excipients as preservatives, described herein, should therefore meet the criteria of these pharmacopoeias in the PET.
This test comprises artificially contaminating aliquots of formulation by means of a calibrated inoculum of specific microorganisms and incubating the same at precise temperatures. Samples are taken from the contaminated aliquots at given time intervals in order to count the microorganisms.
It also makes it obligatory to study the reductions in population of the microorganisms introduced into the formulation according to two acceptability criteria.
Since the A criteria are the most strict, it are […] generally required that they be met.
In justified cases, when the A criteria cannot be complied with, for example owing to an increase in the risk of adverse reactions, the B criteria, which are less drastic, apply.
NI (Non-Increase) signifies that there must not be an increase in the number of microorganisms.
It imposes logarithmic reductions in the population of microorganisms which are different than that of the European pharmacopoeia.

Another data set relates to microorganisms. Particulars: J. J. Kabara; cited from earlier work.
For another data set, the system named is Aspergillus niger. Particulars: cited from earlier work.
A further data set relates to Candida albicans. As to conditions: cited from earlier work.
For data set [2], the system named is Pseudomonas aeruginosa, reference ATCC 9027. The data set can be described thus: Preservative Efficacy Test (PET), Pseudomonas aeruginosa. Type of data set: cell-based. More on the design: key to Gram− bacterium, Pseudomonas aeruginosa: −: No European pharmacopoeia criterion or USP criterion is met; +: for the coli: the USP criteria are met; ++: the European pharmacopoeia criteria A are met. Particulars: additive in standard emulsion.
Text: as §1, with “The test and also the recommendations of the European and U.S. pharmacopoeias are described in Example 1 to follow.” left out, “PET. This test comprises artificially contaminating aliquots of formulation by means of a calibrated inoculum of specific microorganisms and incubating the same at precise temperatures. Samples are taken from the contaminated aliquots at given time intervals in order to count the microorganisms. Bacteria: • Pseudomonas aeruginosa, reference ATCC 9027; NCIMB 8626; CIP 82.118. • Staphylococcus aureus, reference ATCC 6538; NCTC 10788; NCIMB 9518; CIP 4.83. Bacteria: • Escherichia coli, reference ATCC 8739. • Pseudomonas aeruginosa, reference ATCC 9027. • Staphylococcus aureus, reference ATCC 6538.” for “PET.”

Data set [3] concerns Escherichia coli, reference ATCC 8739. In words: Preservative Efficacy Test (PET), Escherichia coli. The format is cell-based. More on the design: key to Gram− bacterium, Esoherichia coli: −: No European pharmacopoeia criterion or USP criterion is met; +: for the coli: the USP criteria are met; ++: the European pharmacopoeia criteria A are met. Particulars: additive in standard emulsion.
Text: as §1, with “The test and also the recommendations of the European and U.S. pharmacopoeias are described in Example 1 to follow.” left out, “PET. This test comprises artificially contaminating aliquots of formulation by means of a calibrated inoculum of specific microorganisms and incubating the same at precise temperatures. Samples are taken from the contaminated aliquots at given time intervals in order to count the microorganisms. Bacteria: • Escherichia coli, reference ATCC 8739. • Pseudomonas aeruginosa, reference ATCC 9027. • Staphylococcus aureus, reference ATCC 6538.” for “PET.”

Data set [4] deals with Staphylococcus aureus, reference ATCC 6538. In words: Preservative Efficacy Test (PET), Staphylococcus aureus. Particulars: additive in standard emulsion. More on the design: key to Gram+ bacterium, Staphylococcus aureus: −: No European pharmacopoeia criterion or USP criterion is met; +: for the coli: the USP criteria are met; ++: the European pharmacopoeia criteria A are met. The format is cell-based.
Text: as §1, with “The test and also the recommendations of the European and U.S. pharmacopoeias are described in Example 1 to follow.” left out, “PET. This test comprises artificially contaminating aliquots of formulation by means of a calibrated inoculum of specific microorganisms and incubating the same at precise temperatures. Samples are taken from the contaminated aliquots at given time intervals in order to count the microorganisms. Bacteria: • Pseudomonas aeruginosa, reference ATCC 9027; NCIMB 8626; CIP 82.118. • Staphylococcus aureus, reference ATCC 6538; NCTC 10788; NCIMB 9518; CIP 4.83. Bacteria: • Escherichia coli, reference ATCC 8739. • Pseudomonas aeruginosa, reference ATCC 9027. • Staphylococcus aureus, reference ATCC 6538.” for “PET.”

The subject of data set [5] is Aspergillus niger, reference ATCC 16404. The data set can be described thus: Preservative Efficacy Test (PET), Aspergillus niger. The format is cell-based. As to conditions: additive in standard emulsion at its given % (EDTA 0.15, citric acid 2, sodium ascorbate 2, tocopherol 0.05, BHT 1, propyl gallate 0.1, ascorbyl palmitate 1). More on the design: key to Moulds, Aspergillus Niger: −: No European pharmacopoeia criterion or USP criterion is met; +: for the coli: the USP criteria are met; ++: the European pharmacopoeia criteria A are met.
Text: as §1, with “The test and also the recommendations of the European and U.S. pharmacopoeias are described in Example 1 to follow.” left out, “PET. This test comprises artificially contaminating aliquots of formulation by means of a calibrated inoculum of specific microorganisms and incubating the same at precise temperatures. Samples are taken from the contaminated aliquots at given time intervals in order to count the microorganisms. Fungi: • Candida albicans, reference ATCC 10231; NCPF 3179; IP 48.72. • Aspergillus niger, reference ATCC 16404; IMI 149007; IP 1431.83. Fungi: • Candida albicans, reference ATCC 10231. • Aspergillus niger, reference ATCC 16404.” for “PET.”

In data set [6] the test system is Candida albicans, reference ATCC 10231. In words: Preservative Efficacy Test (PET), Candida albicans. As to conditions: additive in standard emulsion. Type of data set: cell-based. More on the design: key to Yeast, Candida albicans: −: No European pharmacopoeia criterion or USP criterion is met; +: for the coli: the USP criteria are met; ++: the European pharmacopoeia criteria A are met.
Text: as §1, with “The test and also the recommendations of the European and U.S. pharmacopoeias are described in Example 1 to follow.” left out, “PET. This test comprises artificially contaminating aliquots of formulation by means of a calibrated inoculum of specific microorganisms and incubating the same at precise temperatures. Samples are taken from the contaminated aliquots at given time intervals in order to count the microorganisms. Fungi: • Candida albicans, reference ATCC 10231; NCPF 3179; IP 48.72. • Aspergillus niger, reference ATCC 16404; IMI 149007; IP 1431.83. Fungi: • Candida albicans, reference ATCC 10231. • Aspergillus niger, reference ATCC 16404.” for “PET.”

A short description of data set [7]: pH of the emulsion containing the additive. The format is physicochemical. Particulars: standard emulsion with 2% citric acid.

Bounds are passed on as bounds.

For `CCO` [ethanol], the “Ethanol concentration in the aqueous mixture from which the bactericidal action meets European pharmacopoeia criteria A and the USP criteria” value in [1] (ethanol/water, bacteria) was at least 15%. Moreover, the “Ethanol concentration at which the fungicidal action meets the requirements for all the pharmacopoeias” value in [1] (ethanol/water, fungi) was 25%. The “Ethanol concentration starting from which proliferation of microorganisms can be prevented” value in the data set on microorganisms is listed as ≥ 25 % (v/v).

Consider `CCCOC(=O)c1ccc(O)cc1` [propylparaben], for which the “Concentration that makes it possible to inhibit Aspergillus niger” value with Aspergillus niger is 250 ppm. Further, the “Concentration that makes it possible to inhibit Candida albicans” value in the data set with Candida albicans is on record as 250 ppm.

`O=C(O)CC(O)(CC(=O)O)C(=O)O` [Citric acid]: the “Gram− bacterium, Pseudomonas aeruginosa” value in data set [2] is “++”. Further, the “Efficacy on the microorganisms as a whole / spectrum of efficacy” value in data set [1] (additive in standard emulsion) is on record as “bactericidal”. Further, in data set [3], the “Gram− bacterium, Esoherichia coli” value is reported as “+”. In addition, the “Gram+ bacterium, Staphylococcus aureus” value in data set [4] is on record as “++”. For the same compound, in data set [5], the “Moulds, Aspergillus Niger” value is recorded as “−”. In data set [6], the “Action on Candida albicans” value is recorded as “inhibits” and the “Yeast, Candida albicans” value is listed as “++”. Further, in data set [7], the pH was determined as 2.04.
